Test results reported in US20070203177A1, “Forms of dolasetron mesylate and processes for their preparation” (priority 2006, published 2007).
One block for each compound: values may come before it.

Test: Heat transformations of Dolasetron mesylate forms (solid-state form after heating)
Format: physicochemical

Compound: CS(=O)(=O)O.O=C(OC1C[C@@H]2CC3C[C@H](C1)N2CC3=O)c1c[nH]c2ccccc12 (stereo partly drawn) [Form I, Dolasetron Mesylate]
- HEAT TRANSFORMATION RESULT (heated at 190 °C, 30 min.): Amorphous > III

- HEAT TRANSFORMATION RESULT (second TEMP./TIME) (after 160 °C, 30 min, then 160, 30 min): VII > III
Compound: O=C(OC1CC2CC3CC(C1)N2CC3=O)c1c[nH]c2ccccc12 (stereo not drawn) [Form II, (2α,6α,8α,9αβ)-octahydro-3-oxo-2,6-methano-2H-quinolizin-8-yl-1H-indole-3-carboxylate monomethanesulfonate monohydrate, reference compound]

Compound: CS(=O)(=O)O.O=C(OC1C[C@@H]2CC3C[C@H](C1)N2CC3=O)c1c[nH]c2ccccc12 (stereo partly drawn) [Form IV, Dolasetron mesylate]
- HEAT TRANSFORMATION RESULT (heated at 160 °C, 60 min., listed as IV): VII + IV

Compound: CS(=O)(=O)O.O=C(OC1C[C@@H]2CC3C[C@H](C1)N2CC3=O)c1c[nH]c2ccccc12 (stereo partly drawn) [Form V, Dolasetron mesylate]
- HEAT TRANSFORMATION RESULT (heated at 160 °C, 60 min., listed as V): XII

Compound: CS(=O)(=O)O.O=C(OC1C[C@@H]2CC3C[C@H](C1)N2CC3=O)c1c[nH]c2ccccc12 (stereo partly drawn) [Form VIII, Dolasetron mesylate]
- HEAT TRANSFORMATION RESULT (heated at 160 °C, 30 min): XII
- HEAT TRANSFORMATION RESULT (heated at 160 °C, 60 min., listed as VIII): XII
